Measurements taken from ChEMBL document CHEMBL1201862, “PubChem BioAssay data set” (2004).
Activity calls are given as the source filed them.

Tests used:
[1] = Late stage counterscreen for inhibitors of Trypanosoma brucei methionyl tRNA synthetase (MetRS): Luminescence-based cell-based high throughput dose response assay to identify compounds that are cytotoxic to Jurkat human T lymphocyte cells.; format: functional
[2] = target: SWI/SNF-related matrix-associated actin-dependent regulator of chromatin subfamily A member 2 (Homo sapiens, UniProt P51531); test: Luminescence-based cell-based high throughput dose response assay to identify activators of the function of SWI/SNF related, matrix associated, actin dependent regulator of chromatin, subfamily a, member 2 (SMARCA2, BRM).; format: functional
[3] = Counterscreen for activators of the function of SWI/SNF related, matrix associated, actin dependent regulator of chromatin, subfamily a, member 2 (SMARCA2, BRM): Luminescence-based cell-based high throughput dose response assay to identify non-selective compounds using the VP16 reporter assay.; format: functional
[4] = Luminescence Cell-Based Dose Response to Identify Activators of 5'UTR Stem-Loop Driven Prion Protein mRNA Translation in H4-C Neuroglioblastoma Cells. [Related pubchem assays: 1829 (Project Summary), 1814 (Primary HTS)]; format: functional
[5] = Luminescence Cell-Based Dose Response HTS to Identify Activators of Luciferase Translation or Activity in H4 […] Cells. [Related pubchem assays: 1829 (Project Summary), 1814 (Primary HTS)]; format: functional
H4 = test: Luminescence Cell-Based Dose Response HTS to Identify Activators of 5'UTR Stem-Loop Driven Prion Protein mRNA Translation in H4 Neuroglioblastoma Cells. [Related pubchem assays: 1829 (Project Summary), 1814 (Primary HTS)]; format: functional; conditions: Homo sapiens
[6] = Luminescence Cell-Based Dose Response to Identify Activators of Luciferase Translation or Activity in H4-C Neuroglioblastoma Cells. [Related pubchem assays: 1829 (Project Summary), 1814 (Primary HTS)]; format: functional
[7] = Luminescence Cell-Based Dose Confirmation to Identify Activators of 5'UTR Stem-Loop Driven Alpha-Synuclein mRNA Translation in H4 Neuroglioblastoma Cells. [Related pubchem assays: 1829 (Project Summary), 1814 (Primary HTS)]; format: functional
[8] = target: T1, Rac GTPase-activating protein 1 (Homo sapiens, UniProt Q9H0H5); test: blockers of MgcRacGAP-driven Rac1 GTP hydrolysis – biochemical, ADP Hunter fluorescence, primary and confirmatory, confirmation (AID 624330); format: functional
T1 sequence (Q9H0H5 whole entry): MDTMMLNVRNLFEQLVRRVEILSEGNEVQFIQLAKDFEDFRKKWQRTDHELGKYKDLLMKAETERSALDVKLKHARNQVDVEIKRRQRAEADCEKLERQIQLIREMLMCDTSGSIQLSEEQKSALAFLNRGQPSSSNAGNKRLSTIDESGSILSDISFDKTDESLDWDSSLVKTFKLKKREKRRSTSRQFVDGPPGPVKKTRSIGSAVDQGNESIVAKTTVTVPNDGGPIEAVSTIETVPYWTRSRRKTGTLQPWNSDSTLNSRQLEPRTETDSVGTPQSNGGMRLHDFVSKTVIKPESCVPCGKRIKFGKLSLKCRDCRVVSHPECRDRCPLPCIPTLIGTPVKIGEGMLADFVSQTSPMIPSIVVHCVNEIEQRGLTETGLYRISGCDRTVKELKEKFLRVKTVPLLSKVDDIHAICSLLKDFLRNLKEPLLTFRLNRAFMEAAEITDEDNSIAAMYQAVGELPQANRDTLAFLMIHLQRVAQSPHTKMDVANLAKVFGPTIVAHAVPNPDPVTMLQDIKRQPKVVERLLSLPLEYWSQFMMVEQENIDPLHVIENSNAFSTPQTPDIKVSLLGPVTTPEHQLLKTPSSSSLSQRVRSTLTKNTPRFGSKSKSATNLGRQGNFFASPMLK

[9] = target: T2, Oxysterols receptor LXR-beta (Homo sapiens, UniProt P55055); format: functional, cell-based;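 also: agonist activity at LXR measured by a cell-based luminescence readout across a dose range, run as a counterscreen for daf-12 agonists; HEK293 cells with Gal4-LXR fusion and GAL4-driven luciferase reporter; potency for activation of Gal4-LXR reporter so compounds are agonists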
T2 sequence (P55055 whole entry): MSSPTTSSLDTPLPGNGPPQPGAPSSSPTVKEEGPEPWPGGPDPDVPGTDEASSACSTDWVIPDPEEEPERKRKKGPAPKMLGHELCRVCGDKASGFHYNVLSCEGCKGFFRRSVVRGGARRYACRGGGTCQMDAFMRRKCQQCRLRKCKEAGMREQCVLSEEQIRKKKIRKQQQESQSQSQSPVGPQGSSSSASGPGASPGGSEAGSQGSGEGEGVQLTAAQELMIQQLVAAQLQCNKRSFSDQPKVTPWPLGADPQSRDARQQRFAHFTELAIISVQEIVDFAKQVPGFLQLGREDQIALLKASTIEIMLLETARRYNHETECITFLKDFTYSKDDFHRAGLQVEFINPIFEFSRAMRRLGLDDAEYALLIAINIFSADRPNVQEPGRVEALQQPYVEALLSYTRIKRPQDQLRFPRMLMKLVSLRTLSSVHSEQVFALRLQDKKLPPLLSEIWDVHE

cells = format: functional, cell-based
[10] = activation of miR-122 Renilla sensor silencing – cell-based, Huh7 psiCHECK-miR122, Renilla luciferase, cherry-picked, dose response (AID 651956); format: functional;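 also: huh7 hepatoma cells stably carrying a psiCHECK-2 miR-122 sensor plasmid; renilla luciferase signal reporting endogenous miR-122 activity after 48 h compound exposure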
[11] = general mammalian cell viability loss – activator set, cherry-pick, cytotoxicity control for miR-122 modulator project, dose response (AID 720690); format: functional, cell-based;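 also: HEK293T human cells scored for general mammalian cytotoxicity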
Paired box protein Pax-8 = Paired box protein Pax-8 (Homo sapiens, UniProt Q06710); test: PAX8 transcriptional activity inhibition in RMG-I – RMG-I cells, luciferase, cherry-pick, dose response (AID 687027); format: functional, cell-based;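 also: luciferase reporter driven by Pax8 target thyroperoxidase promoter measured by SteadyGlo luminescence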
[12] = A2780 cell killing – plate reader, dry powder samples, cytotoxicity control, dose response (AID 743046); format: functional, cell-based
[13] = CMV-driven luciferase expression suppression in HEK293 – cell-based, luminescence, dry powder, counter-screen for Pax8 inhibitor project, dose response (AID 743020); format: functional
[14] = OVCAR-3 cell viability loss – plate reader, dry powder samples, PAX8 inhibitor project, dose response (AID 743044); format: functional, cell-based
[15] = IGROV1 cell killing – plate reader, dry powder samples, PAX8 inhibitor project, dose response (AID 743043); format: functional, cell-based; conditions: IGROV-1
[16] = OVCAR8 cell viability loss – plate reader, dry powder samples, PAX8 project, dose response (AID 743197); format: functional, cell-based; conditions: OVCAR-8
[17] = general cell-killing toxicity readout – plate reader, dry powder samples, cytotoxicity control for PAX8 inhibitor project, dose response (AID 743021); format: functional, cell-based
[18] = potency of ADAM10 substrate cleavage blockers – biochemical, QFRET, dose response (AID 743254);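 also: ADAM10 enzyme with the DM2 quenched FRET peptide as substrate; EDANS fluorescence gain as the protease cuts the substrate; inhibitor potency against ADAM10 proteolytic activity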
[19] = target: Disintegrin and metalloproteinase domain-containing protein 17 (Homo sapiens, UniProt P78536); test: inhibition of ADAM17 substrate cleavage – biochemical, quenched FRET substrate, counter-screen for ADAM10 exosite inhibitor project, dose response (AID 743253)
[20] = target: Voltage-dependent T-type calcium channel subunit alpha-1H (Homo sapiens, UniProt O95180); format: functional;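 also: channel activity triggered by adding a high calcium stimulation buffer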
[21] = reduction of Shn3 3'UTR-driven luciferase in osteoblasts – cell-based, Clone20 osteoblasts, firefly luciferase, cherry-picked, dose response (AID 624132); format: functional;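 also: firefly luciferase luminescence from reporter carrying the Shn3 3'UTR in osteoblasts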
[22] = Shn3 3'UTR reporter signal decrease – cell-based, Clone20 osteoblasts, firefly luciferase, cherry-pick, set 2, Schnurri-3 inhibitor project, dose response (AID 720490); format: functional;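 also: actives lower the luminescence signal as inhibitors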
[23] = target: FAD-linked sulfhydryl oxidase ALR (Homo sapiens, UniProt P55789); test: ALR-catalysed DTT oxidation blockers – biochemical, H2O2 detection, luminescence, cherry-pick, dose response (AID 493248)
[24] = A cytotoxicity screen of small molecule inhibitors of the PhoP region in Salmonella typhi identified in the primary screen. [Related pubchem assays: 1850, 1864, 1985 ]; format: functional
INS1 = test: INS-1E survival protection against cytokine death – cell-based, luminescence, retest, dose response (AID 449756); format: functional; conditions: Rattus norvegicus;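 also: cell death triggered by IL-1 beta plus TNF-alpha plus IFN-gamma mixture; protective hits raise ATP signal compared with cytokine alone wells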
[25] = loss of viability in HepG2 cells – cell-based, CellTiter-Glo, cherry-picked, cytotoxicity control for Shn3 inhibitor project, dose response (AID 624134); format: functional
[26] = non-specific 3'UTR reporter inhibition in Clone20-Shn3RL – cell-based, Renilla luciferase, cherry-picked, counter-screen for Shn3 inhibitor project, dose response (AID 624133); format: functional
Protein Wnt-3a [27] = target: T3, Protein Wnt-3a (Mus musculus, UniProt P27467); test: antagonism of Wnt3a pathway luciferase reporter – Wnt-LIGHT cells, luminescence, selectivity assay for Gli-SUFU antagonist project, dose response (AID 651570); format: functional; conditions: read-out: IC50_Mean;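 also: Wnt-LIGHT reporter cells stimulated with conditioned medium from Wnt3a-producing cells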
[28] = blockers of HIV-1 envelope-mediated cell-cell fusion – cherry-pick, dose response (AID 652057); format: functional, cell-based
[29] = viability loss in CEM21 cells – cell-based, CellTiter-Glo luminescence, cherry-picked, cytotoxicity control for viral fusion inhibitor project, dose response (AID 652042); format: functional;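 also: potency for signal decrease meaning cytotoxicity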
[30] = blockers of HIV-1 ZM109 envelope-driven cell-cell fusion – HeLa effector, CEM target cells, luciferase, cherry-pick, dose response (AID 652058); format: functional, cell-based;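 also: luciferase signal from HIV-1 Env mediated cell-cell fusion of effector and target cells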
[31] = HIV-1 AD8 envelope cell-cell fusion blockers – cherry-pick, dose response (AID 652062); format: functional, cell-based;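 also: luciferase signal from cell-cell fusion driven by HIV-1 clade B AD8 Env; potency is for inhibitors of fusion seen as a drop in luminescence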
[32] = HEK-293T cell viability reduction – luminescence, B-cell screen hits, cytotoxicity control for BCR NF-kB inhibitor project, dose response (AID 489021); format: functional, cell-based;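 also: HEK-293T cells carrying an NF-kB luciferase reporter; cells exposed to compound for about 14 hours before viability readout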
Protein Wnt-3a [33] = target: T3, Protein Wnt-3a; test: SAR analysis of small molecule antagonists of Gli-SUFU in a Wnt3a luminescent reporter assay.; format: functional
[34] = target: 1-phosphatidylinositol 4,5-bisphosphate phosphodiesterase gamma-1 (Homo sapiens, UniProt P19174); test: Counterscreen for inhibitors of phospholipase C isozymes (PLC-B3): Fluorescence-based biochemical high throughput dose response assay to identify inhibitors of phospholipase C isozymes (PLC-gamma1).
[35] = target: 1-phosphatidylinositol 4,5-bisphosphate phosphodiesterase beta-3 (Homo sapiens, UniProt Q01970); test: Fluorescence-based biochemical high throughput dose response assay to identify inhibitors of phospholipase C isozymes (PLC-B3).

Chain of Paired box protein Pax-8 (Q06710 whole entry): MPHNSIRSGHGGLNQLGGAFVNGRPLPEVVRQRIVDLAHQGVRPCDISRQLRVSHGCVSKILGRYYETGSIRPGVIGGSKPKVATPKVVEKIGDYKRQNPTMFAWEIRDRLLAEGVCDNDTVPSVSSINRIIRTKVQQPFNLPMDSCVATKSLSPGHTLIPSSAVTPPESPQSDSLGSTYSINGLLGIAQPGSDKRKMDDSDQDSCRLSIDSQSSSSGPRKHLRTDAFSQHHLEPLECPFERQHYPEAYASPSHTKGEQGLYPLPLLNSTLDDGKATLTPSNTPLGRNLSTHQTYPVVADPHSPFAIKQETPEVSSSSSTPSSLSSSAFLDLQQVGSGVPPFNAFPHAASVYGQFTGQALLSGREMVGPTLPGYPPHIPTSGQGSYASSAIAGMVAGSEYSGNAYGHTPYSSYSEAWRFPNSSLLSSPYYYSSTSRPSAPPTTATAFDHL
T3 sequence (P27467 whole entry, the tested form may be a part): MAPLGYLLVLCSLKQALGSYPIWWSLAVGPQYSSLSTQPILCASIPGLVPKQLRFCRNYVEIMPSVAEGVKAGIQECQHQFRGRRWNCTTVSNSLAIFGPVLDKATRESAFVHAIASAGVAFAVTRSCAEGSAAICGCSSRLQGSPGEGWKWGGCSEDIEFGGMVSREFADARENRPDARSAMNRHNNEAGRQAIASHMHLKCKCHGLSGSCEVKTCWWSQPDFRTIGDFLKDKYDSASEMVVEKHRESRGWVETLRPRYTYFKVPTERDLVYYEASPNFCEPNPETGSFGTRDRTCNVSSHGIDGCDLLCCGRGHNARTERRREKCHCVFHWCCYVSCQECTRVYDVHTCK
Chain of SWI/SNF-related matrix-associated actin-dependent regulator of chromatin subfamily A member 2 (P51531 whole entry): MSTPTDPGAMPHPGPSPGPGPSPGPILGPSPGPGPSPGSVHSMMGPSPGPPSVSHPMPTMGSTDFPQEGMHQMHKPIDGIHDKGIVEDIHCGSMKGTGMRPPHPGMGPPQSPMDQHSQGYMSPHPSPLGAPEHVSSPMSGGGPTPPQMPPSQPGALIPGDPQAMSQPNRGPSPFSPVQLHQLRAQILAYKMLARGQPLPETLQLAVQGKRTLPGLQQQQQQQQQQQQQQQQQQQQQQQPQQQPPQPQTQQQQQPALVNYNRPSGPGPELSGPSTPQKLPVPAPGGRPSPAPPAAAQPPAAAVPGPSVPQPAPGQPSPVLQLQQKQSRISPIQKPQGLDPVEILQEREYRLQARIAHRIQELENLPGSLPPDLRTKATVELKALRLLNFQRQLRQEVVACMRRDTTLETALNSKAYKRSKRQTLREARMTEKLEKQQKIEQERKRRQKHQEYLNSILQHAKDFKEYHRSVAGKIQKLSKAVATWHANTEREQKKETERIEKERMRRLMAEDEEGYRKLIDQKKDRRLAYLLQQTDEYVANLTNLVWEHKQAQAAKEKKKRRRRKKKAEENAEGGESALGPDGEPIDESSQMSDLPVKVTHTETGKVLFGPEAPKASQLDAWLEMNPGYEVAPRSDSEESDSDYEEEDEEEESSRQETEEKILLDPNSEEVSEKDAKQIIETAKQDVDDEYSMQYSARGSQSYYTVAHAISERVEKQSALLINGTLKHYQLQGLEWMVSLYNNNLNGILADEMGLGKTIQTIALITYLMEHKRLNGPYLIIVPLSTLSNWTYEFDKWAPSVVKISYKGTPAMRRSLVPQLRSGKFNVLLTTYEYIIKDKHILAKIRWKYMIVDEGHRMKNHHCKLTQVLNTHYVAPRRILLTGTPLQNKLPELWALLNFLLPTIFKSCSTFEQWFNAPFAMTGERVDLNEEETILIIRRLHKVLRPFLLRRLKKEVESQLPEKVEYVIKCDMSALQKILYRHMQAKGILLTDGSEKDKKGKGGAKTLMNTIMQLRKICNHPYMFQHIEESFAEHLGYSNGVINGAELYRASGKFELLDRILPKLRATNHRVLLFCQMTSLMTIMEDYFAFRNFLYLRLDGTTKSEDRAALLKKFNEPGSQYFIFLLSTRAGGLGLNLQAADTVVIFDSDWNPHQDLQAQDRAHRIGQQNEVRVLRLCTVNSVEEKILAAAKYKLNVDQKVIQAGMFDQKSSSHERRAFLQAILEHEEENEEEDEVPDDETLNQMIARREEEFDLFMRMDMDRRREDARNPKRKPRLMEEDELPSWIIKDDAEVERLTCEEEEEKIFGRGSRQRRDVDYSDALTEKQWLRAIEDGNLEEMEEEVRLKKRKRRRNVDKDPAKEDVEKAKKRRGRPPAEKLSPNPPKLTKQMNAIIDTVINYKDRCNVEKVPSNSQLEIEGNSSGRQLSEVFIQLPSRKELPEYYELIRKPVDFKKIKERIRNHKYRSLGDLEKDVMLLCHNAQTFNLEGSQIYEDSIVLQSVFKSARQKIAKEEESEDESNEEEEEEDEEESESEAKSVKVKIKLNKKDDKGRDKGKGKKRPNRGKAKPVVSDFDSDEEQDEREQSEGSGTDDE
Chain of Disintegrin and metalloproteinase domain-containing protein 17 (P78536 whole entry, the tested form may be a part): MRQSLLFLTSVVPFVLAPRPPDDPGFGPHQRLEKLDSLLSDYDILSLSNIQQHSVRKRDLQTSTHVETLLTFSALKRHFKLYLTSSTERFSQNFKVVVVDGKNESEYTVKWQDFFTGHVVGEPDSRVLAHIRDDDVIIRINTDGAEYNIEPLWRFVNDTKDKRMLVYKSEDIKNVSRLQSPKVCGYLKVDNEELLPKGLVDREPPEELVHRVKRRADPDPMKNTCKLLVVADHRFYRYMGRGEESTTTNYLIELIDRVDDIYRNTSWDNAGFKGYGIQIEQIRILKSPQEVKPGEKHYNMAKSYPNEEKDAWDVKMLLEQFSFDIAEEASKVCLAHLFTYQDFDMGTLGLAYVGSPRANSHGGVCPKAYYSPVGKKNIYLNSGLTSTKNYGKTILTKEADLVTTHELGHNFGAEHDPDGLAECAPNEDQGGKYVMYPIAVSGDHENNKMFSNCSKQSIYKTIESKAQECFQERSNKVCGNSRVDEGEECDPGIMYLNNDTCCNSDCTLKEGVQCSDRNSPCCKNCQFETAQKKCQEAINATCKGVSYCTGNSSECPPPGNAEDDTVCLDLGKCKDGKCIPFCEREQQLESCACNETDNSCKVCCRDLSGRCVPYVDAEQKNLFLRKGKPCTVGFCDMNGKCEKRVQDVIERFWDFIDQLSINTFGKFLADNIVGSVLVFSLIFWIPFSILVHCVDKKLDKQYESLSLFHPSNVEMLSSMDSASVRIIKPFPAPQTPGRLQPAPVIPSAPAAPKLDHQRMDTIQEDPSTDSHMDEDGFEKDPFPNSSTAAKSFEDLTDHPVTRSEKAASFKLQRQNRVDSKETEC
Chain of FAD-linked sulfhydryl oxidase ALR (P55789 whole entry): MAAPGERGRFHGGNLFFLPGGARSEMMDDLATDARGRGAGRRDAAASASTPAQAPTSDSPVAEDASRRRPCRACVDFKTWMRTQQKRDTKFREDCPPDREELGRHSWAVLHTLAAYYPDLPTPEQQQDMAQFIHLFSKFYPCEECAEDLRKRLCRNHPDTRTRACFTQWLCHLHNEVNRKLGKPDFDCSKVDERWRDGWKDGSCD
Chain of 1-phosphatidylinositol 4,5-bisphosphate phosphodiesterase gamma-1 (P19174 whole entry): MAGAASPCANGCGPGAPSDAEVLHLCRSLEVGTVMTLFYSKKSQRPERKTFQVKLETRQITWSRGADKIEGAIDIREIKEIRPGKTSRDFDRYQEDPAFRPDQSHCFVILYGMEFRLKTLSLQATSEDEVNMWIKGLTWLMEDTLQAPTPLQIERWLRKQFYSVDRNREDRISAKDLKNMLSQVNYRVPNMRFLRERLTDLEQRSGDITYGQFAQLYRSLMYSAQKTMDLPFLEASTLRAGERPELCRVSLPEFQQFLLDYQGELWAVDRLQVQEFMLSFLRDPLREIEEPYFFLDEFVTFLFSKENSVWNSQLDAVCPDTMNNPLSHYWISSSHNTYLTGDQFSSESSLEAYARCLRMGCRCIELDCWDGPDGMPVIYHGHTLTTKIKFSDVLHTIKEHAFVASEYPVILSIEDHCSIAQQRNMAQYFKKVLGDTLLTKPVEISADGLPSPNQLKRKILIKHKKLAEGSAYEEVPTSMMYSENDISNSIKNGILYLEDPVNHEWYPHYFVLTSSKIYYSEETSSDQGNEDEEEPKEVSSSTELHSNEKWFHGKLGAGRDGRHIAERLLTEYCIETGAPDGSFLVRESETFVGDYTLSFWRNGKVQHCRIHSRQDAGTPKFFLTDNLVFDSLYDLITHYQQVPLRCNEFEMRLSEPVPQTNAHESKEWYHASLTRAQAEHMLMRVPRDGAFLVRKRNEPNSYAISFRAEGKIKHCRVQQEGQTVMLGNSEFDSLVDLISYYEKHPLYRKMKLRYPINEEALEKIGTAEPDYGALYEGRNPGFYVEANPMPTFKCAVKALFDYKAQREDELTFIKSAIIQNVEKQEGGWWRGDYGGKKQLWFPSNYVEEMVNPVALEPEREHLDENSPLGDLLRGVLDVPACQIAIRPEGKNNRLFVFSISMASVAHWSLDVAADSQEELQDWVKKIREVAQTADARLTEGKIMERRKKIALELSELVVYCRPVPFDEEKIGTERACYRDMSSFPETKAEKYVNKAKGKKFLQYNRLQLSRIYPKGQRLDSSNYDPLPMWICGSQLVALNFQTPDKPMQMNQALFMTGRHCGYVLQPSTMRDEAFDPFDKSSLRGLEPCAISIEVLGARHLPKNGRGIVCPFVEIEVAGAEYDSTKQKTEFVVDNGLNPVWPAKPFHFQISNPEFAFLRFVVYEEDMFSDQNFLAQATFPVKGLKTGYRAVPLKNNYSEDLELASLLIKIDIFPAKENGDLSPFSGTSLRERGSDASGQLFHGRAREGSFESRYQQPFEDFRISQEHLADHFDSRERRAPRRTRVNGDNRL

CCO[C@@H]1OC(C(=O)NCc2nc3ccccc3[nH]2)=C[C@H](c2ccc(Br)cc2)[C@H]1CCCO
IC50 [1]: 45.4 µM (inactive)

CCc1nc(C)cc2c1sc1ccccc12
EC50 [2]: > 91.2 µM (inactive) | EC50 [3]: > 91.2 µM (inactive)

CN1C(=O)/C(=C/C=C2\SCCN2C)N(C)C1=S
EC50 [4]: 0.383 µM (active) | EC50 [5]: < 0.1 µM (active) | EC50 (H4): > 120 µM (inconclusive) | EC50 [6]: 0.41 µM (active) | EC50 [7]: 0.766 µM (active) | IC50 [8]: 20 µM (active) | EC50 [9]: > 67.6 µM (inactive)

CCc1nnc(NS(=O)(=O)c2ccc(NC=C3C(=O)CC(C)(C)CC3=O)cc2)s1
IC50 (cells): 60.8 µM (inactive)

O=C1NC(=O)N(c2ccc(Cl)cc2)C(=O)/C1=C\Nc1ccc(S(=O)(=O)Nc2nccs2)cc1
IC50 (cells): 74.7 µM (inactive)

CN1C(=O)c2cc(NS(=O)(=O)c3ccc(Cl)cc3)ccc2OC[C@@H]2O[C@H](CC(=O)N3CCc4ccccc4C3)CC[C@H]21
AC50 [10]: 19.1 µM (active) | AC50 [11]: 46.9 µM (active)

COc1ccc2c3c(n(C)c2c1)[C@H](CO)N(Cc1ccccc1)CC31CCN(S(=O)(=O)c2ccc(C)cc2)CC1
AC50 (Paired box protein Pax-8): 6.41 µM (active) | AC50 [12]: 17.4 µM (active) | AC50 [13]: 14.3 µM (active) | AC50 [14]: 17.8 µM (active) | AC50 [15]: 51.1 µM (active) | AC50 [16]: 13.2 µM (active)

COc1cc(C=C2C(=O)C=CC2=O)ccc1O
AC50 (Paired box protein Pax-8): 1.63 µM (active) | AC50 [17]: 19.1 µM (active)

C=CCN(c1ccccc1OC)S(=O)(=O)c1cccc(C(=O)OCC(=O)c2c[nH]c3ccccc23)c1
IC50 [18]: > 69.5 µM (inactive) | IC50 [19]: > 69.5 µM (inactive)

Cc1cccc(-c2noc(CN(C(=O)C(c3ccccc3)c3ccccc3)C(C)C)n2)c1
EC50 [20]: 6.72 µM (active) | AC50 [21]: 6.27 µM (active) | AC50 [22]: 12.3 µM (active)

COc1ccc(NC(=O)N(C)C[C@H]2OCCCC[C@@H](C)Oc3ccc(NC(=O)Nc4ccc(C(F)(F)F)cc4)cc3C(=O)N([C@@H](C)CO)C[C@@H]2C)cc1
AC50 (Paired box protein Pax-8): 3.41 µM (active) | AC50 [13]: 41 µM (active) | AC50 [14]: 24 µM (active) | AC50 [16]: > 70 µM (inactive)

CN(C)P(=O)(C(Cl)=C(N1CCCCC1)N1CCCCC1)N(C)C
AC50 [23]: 41.1 µM (active) | EC50 [2]: > 91.1 µM (inactive) | EC50 [3]: > 91.1 µM (inactive)

CCCCOCCCNc1[nH]cnc2c3ccccc3nc1-2
EC50 [24]: > 50 µM (active) | AC50 (INS1): 1.78 µM (active) | AC50 [21]: 1.05 µM (active) | AC50 [25]: 22.9 µM (active) | AC50 [26]: 10.9 µM (active) | IC50 (Protein Wnt-3a [27]): 0.843 µM (active) | AC50 [28]: 33.8 µM (active) | AC50 [29]: 46.3 µM (active) | AC50 [30]: 14.8 µM (active) | AC50 [31]: 5.02 µM (active) | AC50 [22]: 1.48 µM (active)

CCN(CC)c1ccc(NC(=O)COC(=O)CSc2ccc(Br)cc2C)cc1
IC50 [18]: > 7.72 µM (active) | IC50 [19]: > 69.5 µM (inactive)

CCOc1ccc(S(=O)(=O)NCc2ccncc2)cc1NC(=O)c1ccccc1
IC50 [32]: > 80 µM (inactive) | IC50 (Protein Wnt-3a [27]): 33.2 µM (inactive) | IC50 (Protein Wnt-3a [33]): > 21.8 µM (inactive)

C[C@H]1CN([C@@H](C)CO)C(=O)Cc2cc(NC(=O)Nc3ccc4c(c3)OCO4)ccc2O[C@@H]1CN(C)CC1CCCCC1
AC50 (Paired box protein Pax-8): 31.2 µM (active) | AC50 [12]: 22.2 µM (active) | AC50 [16]: 62.9 µM (active)

O=C(NCc1nc2ccccc2[nH]1)C1=C[C@H](c2ccc(Br)cc2)C[C@H](OCc2ccc(CO)cc2)O1
IC50 [1]: 81.3 µM (inactive)

CCCCN=C(S)NNC(=O)c1csc(C)c1
IC50 [34]: > 122 µM (inactive) | IC50 [35]: > 122 µM (inactive)

CC(C)CNc1cc(NC(=O)c2ccccc2)ncn1
IC50 (Protein Wnt-3a [33]): > 21.8 µM (inactive)
